# In ChEMBL document CHEMBL1201862, “PubChem BioAssay data set” (2004):
#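 Five compound concentrations were applied to cells in 96-well plates for 48 hours; endpoints were derived by simple linear interpolation of the resulting dose-response curve. GI50 marks 50% less growth.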 Calls of active or inactive are those of the source. Cut-off read from the data, not from the text of the source: active = GI50 up to about 1.1 µM and inactive = higher. Starred links: 1 amine or outer side, 2 acyl side, 3 side chain; linkers in the order of their positions; H or OH if unused. Positions of bridges follow the written chain, without caps; N, C: chain ends. Non-standard residues stand in square brackets, D forms with d. Residues, ends and D or L forms follow the SMILES beside them. ξ: configuration not given here. *: point of attachment. γ4hArg(2R,3R-(OH)2) = N=C(N)NCCC[C@H](N[*:1])[C@@H](O)[C@@H](O)C(=O)[*:2]; Gln(3S,4R-Me2) = C[C@H]([C@H](N)C(=O)O)[C@@H](C)C(N)=O; X50 = CC(C)C[C@H](C)[C@@H](O)[C@@H](C)C(=O)*; X51 = COC(c1ccc(O)cc1)C(N[*:1])C(=O)[*:2]; NMeQ = CN[C@@H](CCC(N)=O)C(=O)O; Thr(3ξ) = CC(O)[C@H](N)C(=O)O; NMeA = CN[C@@H](C)C(=O)O
# How the values were obtained:
# Experiment in all cases: growth of human tumour cells (NCI), 48 h
# OVCAR-4 = test system: OVCAR-4
# 786-0 = test system: 786-0
# IGROV-1 = test system: IGROV-1
# TK-10 = test system: TK-10
# CAKI-1 = test system: CAKI-1
# HOP-92 = test system: HOP-92
# UACC-62 = test system: UACC-62
# COLO 205 = test system: COLO 205
# SNB-19 = test system: SNB-19
# ACHN = test system: ACHN
# UACC-257 = test system: UACC-257
# HOP-62 = test system: HOP-62
# OVCAR-5 = test system: OVCAR-5
# SNB-78 = test system: SNB-78
# SNB-75 = test system: SNB-75
# T47D = test system: T47D
# BT-549 = test system: BT-549
# MCF7 = test system: MCF7
# MDA-MB-231 = test system: MDA-MB-231
# SR = test system: SR
Compound,GI50 (OVCAR-4),GI50 (786-0),GI50 (IGROV-1),GI50 (TK-10),GI50 (CAKI-1),GI50 (HOP-92),GI50 (UACC-62),GI50 (COLO 205),GI50 (SNB-19),GI50 (ACHN),GI50 (UACC-257),GI50 (HOP-62),GI50 (OVCAR-5),GI50 (SNB-78),GI50 (SNB-75),GI50 (T47D),GI50 (BT-549),GI50 (MCF7),GI50 (MDA-MB-231),GI50 (SR)
CCOc1ccc(C2=NN(CC)C(=O)C(C3C(=O)N(c4ccccc4)N=C3C)C2)cc1 (stereo unspecified),> 100 µM (inactive),> 100 µM (inactive),> 100 µM (inactive),> 100 µM (inactive),> 100 µM (inactive),> 100 µM (inactive),> 100 µM (inactive),> 100 µM (inactive),> 100 µM (inactive),> 100 µM (inactive),> 100 µM (inactive),> 100 µM (inactive),> 100 µM (inactive),> 100 µM (inactive),–,–,–,–,–,–
N#CC(C(=O)/C(=N\NC(N)=O)C(C#N)c1ccc(Cl)cc1)c1ccc(Cl)cc1 (stereo unspecified),> 100 µM (inactive),> 100 µM (inactive),> 100 µM (inactive),–,–,68.4 µM (inactive),> 100 µM (inactive),> 100 µM (inactive),> 100 µM (inactive),> 100 µM (inactive),> 100 µM (inactive),> 100 µM (inactive),> 100 µM (inactive),> 100 µM (inactive),–,–,–,–,–,–
O=C(CCc1n[nH]c(=S)o1)Nc1cc(Cl)ccc1Cl,> 100 µM (inactive),29.6 µM (inactive),> 100 µM (inactive),> 100 µM (inactive),> 100 µM (inactive),> 100 µM (inactive),> 100 µM (inactive),> 100 µM (inactive),> 100 µM (inactive),61.1 µM (inactive),> 100 µM (inactive),> 100 µM (inactive),> 100 µM (inactive),> 100 µM (inactive),> 100 µM (inactive),–,–,–,–,–
CC12CC3C(CC1SCC(=O)O2)C3(C)C (stereo unspecified),> 100 µM (inactive),> 100 µM (inactive),> 100 µM (inactive),> 100 µM (inactive),–,> 100 µM (inactive),–,> 100 µM (inactive),–,> 100 µM (inactive),> 100 µM (inactive),–,> 100 µM (inactive),> 100 µM (inactive),> 100 µM (inactive),–,–,–,–,–
COc1cc2c(cc1OC)C1CN3C(=O)CCC3C(O)C1c1cc(OC)c(OC)cc1-2 (stereo unspecified),> 100 µM (inactive),> 100 µM (inactive),> 100 µM (inactive),> 100 µM (inactive),> 100 µM (inactive),> 100 µM (inactive),> 100 µM (inactive),> 100 µM (inactive),> 100 µM (inactive),> 100 µM (inactive),> 100 µM (inactive),> 100 µM (inactive),> 100 µM (inactive),–,20.9 µM (inactive),> 100 µM (inactive),> 100 µM (inactive),> 100 µM (inactive),> 100 µM (inactive),> 100 µM (inactive)
CC1(C)OB(O)OC1(C)C,> 100 µM (inactive),> 100 µM (inactive),> 100 µM (inactive),> 100 µM (inactive),> 100 µM (inactive),–,> 100 µM (inactive),> 100 µM (inactive),> 100 µM (inactive),> 100 µM (inactive),> 100 µM (inactive),> 100 µM (inactive),> 100 µM (inactive),> 100 µM (inactive),> 100 µM (inactive),–,–,–,–,–
"COC(c1ccc(O)cc1)C1NC(=O)[C@H](CCC(N)=O)N(C)C(=O)[C@H](CC(C)C)NC(=O)[C@@H](CCCN=C(N)N)NC(=O)[C@H](C(C)O)NC(=O)[C@@H](NC(=O)[C@@H](NC(=O)[C@H](O)[C@H](O)[C@H](CCCN=C(N)N)NC(=O)[C@H](C)NC(=O)[C@H](C)[C@H](O)[C@@H](C)CC(C)C)[C@@H](C)[C@@H](C)C(N)=O)[C@@H](C)OC(=O)[C@H](C)N(C)C1=O (stereo partly drawn) (X50-A[γ4hArg(2R,3R-(OH)2)][Gln(3S,4R-Me2)]T[Thr(3ξ)][dR]L[NMeQ][X51][NMeA]; ester 4-C)",0.134 µM (active),0.204 µM (active),0.0746 µM (active),0.146 µM (active),0.102 µM (active),0.138 µM (active),0.126 µM (active),0.0881 µM (active),0.0929 µM (active),0.115 µM (active),0.113 µM (active),0.15 µM (active),0.167 µM (active),–,0.0902 µM (active),0.138 µM (active),0.242 µM (active),0.14 µM (active),0.106 µM (active),0.143 µM (active)
NS(=O)(=O)c1ccc(NC(=S)NC(=O)Nc2ccc(Cl)c(Cl)c2)cc1,14.9 µM (inactive),14.9 µM (inactive),19.3 µM (inactive),25.1 µM (inactive),18.7 µM (inactive),26.5 µM (inactive),13.5 µM (inactive),14 µM (inactive),11.9 µM (inactive),11.5 µM (inactive),17.9 µM (inactive),17.4 µM (inactive),12.8 µM (inactive),–,13.7 µM (inactive),10.7 µM (inactive),15.4 µM (inactive),15 µM (inactive),1.06 µM (active),< 0.01 µM (active)
CC(C)CC(=O)OC[n+]1cccc(-c2c(COC(=O)NC(C)C)c(COC(=O)NC(C)C)c3n2CCC3)c1,38.5 µM (inactive),27.5 µM (inactive),> 100 µM (inactive),63.5 µM (inactive),17.2 µM (inactive),26.6 µM (inactive),25.6 µM (inactive),70.3 µM (inactive),> 100 µM (inactive),24.9 µM (inactive),> 100 µM (inactive),41.7 µM (inactive),60.8 µM (inactive),–,39.8 µM (inactive),51.3 µM (inactive),77.3 µM (inactive),45.1 µM (inactive),37.4 µM (inactive),> 100 µM (inactive)
CC(C(=O)N1C(=O)N(C(=O)[C@H](C)C(O)c2ccccc2)[C@H](c2ccccc2)[C@H]1c1ccccc1)[C@@H](O)c1ccccc1 (stereo partly specified),26.5 µM (inactive),29.2 µM (inactive),12 µM (inactive),41.2 µM (inactive),20 µM (inactive),25.6 µM (inactive),14.6 µM (inactive),18.7 µM (inactive),37.2 µM (inactive),30.5 µM (inactive),28.4 µM (inactive),37.1 µM (inactive),25.2 µM (inactive),–,28 µM (inactive),68.9 µM (inactive),6.04 µM (inactive),26.6 µM (inactive),19.5 µM (inactive),0.118 µM (active)
Cc1ccc(O)c(Cc2nc3ccccc3nc2-c2cccc(Br)c2)c1,> 100 µM (inactive),57 µM (inactive),46 µM (inactive),> 100 µM (inactive),85.3 µM (inactive),> 100 µM (inactive),> 100 µM (inactive),> 100 µM (inactive),19.9 µM (inactive),55.1 µM (inactive),45.7 µM (inactive),> 100 µM (inactive),> 100 µM (inactive),–,> 100 µM (inactive),> 100 µM (inactive),> 100 µM (inactive),37.1 µM (inactive),> 100 µM (inactive),33.2 µM (inactive)
COc1c(Br)cc(Br)c(OC)c1-c1ccc[nH]1,22.1 µM (inactive),> 100 µM (inactive),53.6 µM (inactive),5.83 µM (inactive),13.3 µM (inactive),37.3 µM (inactive),56.1 µM (inactive),> 100 µM (inactive),–,> 100 µM (inactive),> 100 µM (inactive),> 100 µM (inactive),> 100 µM (inactive),> 100 µM (inactive),22.1 µM (inactive),–,–,–,–,–
O=c1c2ccccc2sc2c(CO)ccc(NCCN3CCCCC3)c12,2.48 µM (inactive),2.47 µM (inactive),3.93 µM (inactive),3.48 µM (inactive),3.45 µM (inactive),5.83 µM (inactive),4.33 µM (inactive),1.92 µM (inactive),4.73 µM (inactive),2.39 µM (inactive),2.07 µM (inactive),3.24 µM (inactive),6.35 µM (inactive),–,5.77 µM (inactive),5.25 µM (inactive),10.8 µM (inactive),2.99 µM (inactive),5.48 µM (inactive),0.497 µM (active)
Cc1cccc2c(N)c3cccc(C(=O)NCC[N+](C)(C)Cc4ccc([N+](=O)[O-])n4C)c3nc12,46.8 µM (inactive),7.45 µM (inactive),9.53 µM (inactive),47.9 µM (inactive),7.1 µM (inactive),33.5 µM (inactive),44.3 µM (inactive),9.82 µM (inactive),15.6 µM (inactive),10.1 µM (inactive),53.5 µM (inactive),5.25 µM (inactive),17.6 µM (inactive),–,6.32 µM (inactive),4.71 µM (inactive),> 42.6 µM (inactive),8.65 µM (inactive),38.6 µM (inactive),3.44 µM (inactive)
NC(c1ccccc1)(C(F)(F)F)P1(=O)OC(=O)c2ccccc2O1 (stereo unspecified),> 100 µM (inactive),> 100 µM (inactive),> 100 µM (inactive),> 100 µM (inactive),> 100 µM (inactive),20.9 µM (inactive),> 100 µM (inactive),> 100 µM (inactive),> 100 µM (inactive),> 100 µM (inactive),> 100 µM (inactive),> 100 µM (inactive),> 100 µM (inactive),–,> 100 µM (inactive),> 100 µM (inactive),> 100 µM (inactive),> 100 µM (inactive),> 100 µM (inactive),71.8 µM (inactive)
